1 compound from publication PMC3524753, “SU11652 Inhibits tyrosine kinase activity of FLT3 and growth of MV-4-11 cells” (Journal of Hematology & Oncology, 2012) can be followed below.

The structures appear in SMILES notation. Changes are numbered by the printed parent chain.

Assay in all cases: in vitro kinase assay with GST-FLT3S substrate, anti-phosphotyrosine immunoblot
Holding throughout (format): biochemical
Background: In western blotting, separated proteins are transferred to a membrane and probed.

Experiment [1] has as its target T1, FLT3 (FMS-like tyrosine kinase 3) (Homo sapiens, UniProt P36888, D835H).
T1 construct: catalytic domain of FLT3 D835H
T1 sequence (P36888 564-993 D835H limits assumed): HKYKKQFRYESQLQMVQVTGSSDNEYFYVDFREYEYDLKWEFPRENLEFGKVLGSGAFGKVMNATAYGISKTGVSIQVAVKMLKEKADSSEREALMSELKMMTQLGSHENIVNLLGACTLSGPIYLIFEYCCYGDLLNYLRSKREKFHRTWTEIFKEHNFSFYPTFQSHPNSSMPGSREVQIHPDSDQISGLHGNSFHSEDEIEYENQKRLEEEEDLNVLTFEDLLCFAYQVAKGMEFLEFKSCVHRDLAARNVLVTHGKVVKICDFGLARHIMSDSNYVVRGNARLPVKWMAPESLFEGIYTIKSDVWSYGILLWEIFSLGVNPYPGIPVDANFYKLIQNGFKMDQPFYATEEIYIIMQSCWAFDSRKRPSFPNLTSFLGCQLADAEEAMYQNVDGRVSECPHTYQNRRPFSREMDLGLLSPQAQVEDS

Experiment [2] deals with T2, FLT3 (FMS-like tyrosine kinase 3) (Homo sapiens, UniProt P36888).
T2 construct: catalytic domain of wild type FLT3
T2 sequence (P36888 564-993 limits assumed): T1 sequence (P36888 564-993 D835H limits assumed) with H272D

In experiment [3] the target is T3, FLT3 (FMS-like tyrosine kinase 3) (Homo sapiens, UniProt P36888, D835Y).
T3 construct: catalytic domain of FLT3 D835Y
T3 sequence (P36888 564-993 D835Y limits assumed): T1 sequence (P36888 564-993 D835H limits assumed) with H272Y

As to `CCN(CC)CCNC(=O)c1c(C)[nH]c(/C=C2\C(=O)Nc3ccc(Cl)cc32)c1C` [SU11652], the values for the IC50 in experiment [1], in experiment [2] and in experiment [3] were 32 nM, around 1.5 nM and 16 nM, respectively.
